Bounds are passed on as bounds.

The target in assay [1] is Acetylcholinesterase (Homo sapiens, UniProt P22303).
Description: Inhibition of acetylcholinesterase isolated from Human erythrocytes.
Assay [2] has as its target Cholinesterases; ACHE & BCHE (Homo sapiens) (UniProt P06276+P22303). Description: Ratio between IC50 of human BChE and human AChE. The assay is classed as protein assay.
The target of another assay is Cholinesterase (Homo sapiens, UniProt P06276).
Assay [3] addresses T1, Acetylcholinesterase (Bos taurus, UniProt P23795).
T1 sequence (P23795 whole entry): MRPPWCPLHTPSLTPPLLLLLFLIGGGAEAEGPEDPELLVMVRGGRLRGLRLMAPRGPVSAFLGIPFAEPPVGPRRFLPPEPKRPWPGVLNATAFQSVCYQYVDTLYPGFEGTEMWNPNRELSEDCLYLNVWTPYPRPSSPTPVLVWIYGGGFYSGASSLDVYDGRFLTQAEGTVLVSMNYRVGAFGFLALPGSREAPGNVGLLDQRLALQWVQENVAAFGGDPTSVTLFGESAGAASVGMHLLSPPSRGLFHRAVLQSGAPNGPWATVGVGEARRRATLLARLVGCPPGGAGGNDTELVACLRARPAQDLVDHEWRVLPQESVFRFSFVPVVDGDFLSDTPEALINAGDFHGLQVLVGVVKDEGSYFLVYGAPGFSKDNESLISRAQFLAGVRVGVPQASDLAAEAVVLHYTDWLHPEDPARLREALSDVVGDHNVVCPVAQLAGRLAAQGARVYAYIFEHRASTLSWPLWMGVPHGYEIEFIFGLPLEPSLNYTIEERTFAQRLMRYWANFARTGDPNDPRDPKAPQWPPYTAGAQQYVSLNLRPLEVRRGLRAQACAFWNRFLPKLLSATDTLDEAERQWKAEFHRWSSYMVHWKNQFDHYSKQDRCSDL
Description: Compound was evaluated for the inhibition of acetylcholinesterase of bovine erythrocytes

A short description of assay [4]: Compound was evaluated for the antagonism index 10 uM; NR is No Reversion. The assay is classed as functional.
A short description of assay [5]: Compound was evaluated for the antagonism index 10 uM; NR ismNo reversion. The class given is functional.
Assay [6] addresses T1, Acetylcholinesterase. This is another data set of the same source.
Description: Compound was evaluated for the inhibition of acetylcholinesterase activity from bovine erythrocytes after 0 minutes of incubation
The target of assay [7] is T1, Acetylcholinesterase. This is another data set of the same source.
The nature of assay [8]: Compound was evaluated for the antagonism index at 1 uM. The assay is classed as functional.

Sequence of Cholinesterase (P06276 whole entry): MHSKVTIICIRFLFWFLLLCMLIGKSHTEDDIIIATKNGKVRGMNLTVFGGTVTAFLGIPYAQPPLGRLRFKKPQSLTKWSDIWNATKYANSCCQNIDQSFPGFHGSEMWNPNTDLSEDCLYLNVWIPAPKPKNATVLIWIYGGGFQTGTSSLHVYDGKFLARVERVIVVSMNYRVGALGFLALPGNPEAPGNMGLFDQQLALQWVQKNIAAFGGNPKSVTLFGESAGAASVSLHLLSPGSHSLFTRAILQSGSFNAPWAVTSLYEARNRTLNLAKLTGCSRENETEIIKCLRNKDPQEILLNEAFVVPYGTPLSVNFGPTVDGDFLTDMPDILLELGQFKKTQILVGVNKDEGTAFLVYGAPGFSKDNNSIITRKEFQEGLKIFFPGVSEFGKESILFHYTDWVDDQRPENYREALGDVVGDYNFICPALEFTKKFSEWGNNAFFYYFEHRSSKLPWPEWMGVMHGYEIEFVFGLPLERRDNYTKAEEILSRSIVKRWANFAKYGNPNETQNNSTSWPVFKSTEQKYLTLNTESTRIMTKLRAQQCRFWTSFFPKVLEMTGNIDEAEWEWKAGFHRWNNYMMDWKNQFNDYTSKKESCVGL
Sequence of Cholinesterases; ACHE & BCHE (Homo sapiens) (P06276 whole entry, looked up): as the sequence (P06276 whole entry) above
Sequence of Cholinesterases; ACHE & BCHE (Homo sapiens) (P22303 whole entry, looked up): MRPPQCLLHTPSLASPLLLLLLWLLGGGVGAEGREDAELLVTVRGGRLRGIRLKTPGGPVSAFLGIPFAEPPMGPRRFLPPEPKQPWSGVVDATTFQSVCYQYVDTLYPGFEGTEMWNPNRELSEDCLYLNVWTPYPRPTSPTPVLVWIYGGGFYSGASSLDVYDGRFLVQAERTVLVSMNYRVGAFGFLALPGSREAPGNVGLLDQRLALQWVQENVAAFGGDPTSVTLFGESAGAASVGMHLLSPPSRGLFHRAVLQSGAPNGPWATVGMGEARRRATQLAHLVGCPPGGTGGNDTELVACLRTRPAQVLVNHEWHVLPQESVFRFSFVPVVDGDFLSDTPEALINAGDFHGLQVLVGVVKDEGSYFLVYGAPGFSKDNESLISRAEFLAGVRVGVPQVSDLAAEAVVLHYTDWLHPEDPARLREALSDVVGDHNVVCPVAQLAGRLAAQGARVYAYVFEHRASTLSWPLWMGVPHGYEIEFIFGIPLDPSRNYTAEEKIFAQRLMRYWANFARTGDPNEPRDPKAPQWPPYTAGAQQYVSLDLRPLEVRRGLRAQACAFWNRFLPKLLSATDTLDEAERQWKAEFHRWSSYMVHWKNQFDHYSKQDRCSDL
Sequence of Acetylcholinesterase (Homo sapiens, UniProt P22303) (P22303 whole entry): as the sequence (P22303 whole entry, looked up) above

With `CC1=CC2Cc3nc4cccc(F)c4c(N)c3C(C1)C2` (stereo not drawn), the IC50 on Acetylcholinesterase [1] came to 35.4 nM. For the same compound, the Ratio in assay [2] worked out at 15.3.
For the compound `CCC1=CC2Cc3nc4cccc(Cl)c4c(N)c3C(C1)C2` (stereo not drawn), the values for the IC50 on Acetylcholinesterase [1] and at Cholinesterase were 11.7 nM and 331 nM, respectively.
For the compound `CCC1=CC2Cc3nc4cc(C)cc(C)c4c(N)c3C(C1)C2` (stereo not drawn), the IC50 against Acetylcholinesterase [1] was found to be 4.96 nM; against Acetylcholinesterase [3], 3.59 nM; on Cholinesterase it was 32.6 nM. Besides, the Ratio in assay [2] is 6.57.
As to `CC1=CC2Cc3nc4cc(F)cc(F)c4c(N)c3C(C1)C2` (stereo not drawn), the IC50 against Acetylcholinesterase [1] was determined as 2.2 nM; against Cholinesterase it was 963 nM. Besides, the Ratio in assay [2] came to 438.
For the compound `CCC1=CC2Cc3nc4cc(F)cc(F)c4c(N)c3C(C1)C2` (stereo not drawn), the IC50 at Acetylcholinesterase [1] was 1.76 nM; at Acetylcholinesterase [3], 2.62 nM; against Cholinesterase it was 194 nM.
In the same order, the values of `CCC1=CC2Cc3nc4cc(Cl)cc(Cl)c4c(N)c3C(C1)C2` (stereo not drawn) are 1.39 nM, 39.6 nM and 1210 nM.
On Acetylcholinesterase [1], `CC1=C[C@@H]2Cc3nc4cc(F)ccc4c(N)c3[C@H](C1)C2` gave an IC50 of 4.58 nM. The Ratio in assay [2] came to 43.
For the compound `CCC1=CC2Cc3nc4cc(C)ccc4c(N)c3C(C1)C2` (stereo not drawn), the NR result in [4] was “No reversion”.
Consider `CCC1=CC2Cc3nc4cc(Cl)ccc4c(N)c3[C@@H](C1)C2` (mixture of isomers; (+)), for which the NR result in assay [5] is “No reversion”.
On to `CCC1=CC2Cc3nc4cc(Cl)ccc4c(N)c3[C@@H](C1)C2` (mixture of isomers; (+)) [HUPRINE X], for which the IC50 against Acetylcholinesterase [1] was determined as 23.1 nM; against Acetylcholinesterase [6] it was 240 nM; against Acetylcholinesterase [7], 350 nM; on Acetylcholinesterase [3], 402 nM; against Cholinesterase it was 58.3 nM.
In the same order, the values of `CCC1=CC2Cc3nc4cc(Cl)ccc4c(N)c3[C@@H](C1)C2` (mixture of isomers; (-)) [HUPRINE X] are 0.32 nM, 2.31 nM, 0.0674 nM, 1.3 nM and 159 nM.
In assay [8], `CC1=CC2Cc3nc4cc(Cl)ccc4c(N)c3C(C1)C2` (racemic; (+)) gave an inhibition of 22.1%.
Turning to `CC1=CC2Cc3nc4cc(Cl)ccc4c(N)c3C(C1)C2` (racemic; (+)) [HUPRINE Y], the IC50 is 65 nM on Acetylcholinesterase [3] and 153 nM against Cholinesterase.
Turning to `CC1=CC2Cc3nc4cc(Cl)ccc4c(N)c3C(C1)C2` (racemic; (-)) [HUPRINE Y], the IC50 at Acetylcholinesterase [6] was 3.03 nM; on Acetylcholinesterase [7] it was 0.0245 nM; at Acetylcholinesterase [3], 1.15 nM; against Cholinesterase, 247 nM.
For the compound `CCC1=CC2Cc3nc4cc(Cl)ccc4c(N)c3[C@@H](C1)C2` (stereo in doubt) [HUPRINE X], the IC50 was 0.75 nM on Acetylcholinesterase [1]; 3.34 nM against Acetylcholinesterase [6]; 0.23 nM at Acetylcholinesterase [7]; 2.77 nM against Acetylcholinesterase [3]; 15.8 nM on Cholinesterase.
As to `CC1=CC2Cc3nc4cc(Cl)ccc4c(N)c3C(C1)C2` (stereo in doubt) [HUPRINE Y], the IC50 on Acetylcholinesterase [6] amounted to 3.1 nM; against Acetylcholinesterase [7], 0.64 nM; against Acetylcholinesterase [3], 4.23 nM; against Cholinesterase, 236 nM.
The compound `C/C=C1\[C@H]2C=C(C)C[C@]1(N)c1ccc(=O)[nH]c1C2` [HUPERZINE A] registered an IC50 on Cholinesterase greater than 10000 nM.

As a reminder, the IC50 is the concentration that gives 50% inhibition. A word on the inhibition: it is the relative decrease from the control value, in per cent.
